Results: ChEMBL document CHEMBL1138830, “On the function of the 14 A long internal cavity of histone deacetylase-like protein: implications for the design of histone deacetylase inhibitors” (J Med Chem, 2004)

biological target: Histone deacetylase 1 (Homo sapiens, UniProt Q13547); experiment: Inhibitory activity against human Histone deacetylase 1
Sequence (Q13547 whole entry): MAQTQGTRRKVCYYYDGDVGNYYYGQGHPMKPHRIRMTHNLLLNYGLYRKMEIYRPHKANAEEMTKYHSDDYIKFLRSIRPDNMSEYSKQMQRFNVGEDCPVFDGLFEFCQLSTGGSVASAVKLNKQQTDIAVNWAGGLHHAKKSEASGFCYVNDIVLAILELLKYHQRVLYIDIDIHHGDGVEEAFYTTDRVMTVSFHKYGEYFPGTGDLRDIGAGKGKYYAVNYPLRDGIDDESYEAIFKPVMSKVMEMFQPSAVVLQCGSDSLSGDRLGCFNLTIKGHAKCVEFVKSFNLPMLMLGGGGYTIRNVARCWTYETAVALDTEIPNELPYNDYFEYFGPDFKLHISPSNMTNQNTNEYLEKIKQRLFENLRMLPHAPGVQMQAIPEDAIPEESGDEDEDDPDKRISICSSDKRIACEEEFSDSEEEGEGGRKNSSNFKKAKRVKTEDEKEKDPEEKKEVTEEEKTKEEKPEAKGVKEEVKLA

SMILES | IC50 [nM]
O=C(CCCCCC(C(=O)Nc1ccc2ncccc2c1)C(=O)Nc1ccc2ncccc2c1)NO | 1
O=C(CCCCCC(NC(=O)OCc1ccccc1)C(=O)Nc1cccc2cccnc12)NO (stereo not drawn) | 2.5
O=C(/C=C/c1cccc(C(C(=O)Nc2ccccc2)C(=O)Nc2ccccc2)c1)NO | 1
